Laboratory results taken from patent publication US9340577B2, “HLA binding motifs and peptides and their uses” (priority 1992, dated 2016).
No end group written: not given here.

How the values were obtained:
Experiment in all cases: biochemical
Assay type in all cases: binding
HLA-A3.2 (A*0301) = HLA-A3.2 (A*0301) (Homo sapiens, UniProt P04439)
HLA-A11 (A*1101) = HLA-A11 (A*1101) (Homo sapiens, UniProt P04439, A114D/D185E/E176A/F33Y/L180Q/S129P/T187R); design: A11: unit not given here
A*3301 = A*3301 (Homo sapiens, UniProt P04439, A270S/D185E/E176V/E277Q/E87N/F33T/G231S/H175R/I121M/I218V/I322F/K168Q/K210R/L300P/L318F/M331R/P217A/Q86R/Q94H/R138Q/T323A/T345S/T97I/V358M/Y195H)
A31 (A*3101) = A31 (A*3101) (Homo sapiens, UniProt P04439, A270S/D185E/E176V/E277Q/F33T/G231S/G80R/H175R/I121M/I218V/I322F/K168Q/L300P/L318F/M331R/P217A/Q94H/R138Q/T323A/T345S/T97I/V358M)
A*6801 = A*6801 (Homo sapiens, UniProt P04439, A269V/D185E/E176V/E277Q/E87N/F33Y/G231S/I121M/I166T/I218V/L180W/L300P/L318F/N151K/P208A/P217A/Q86R/R169H/T345S)
HLA-A*0201 (HLA-A2.1) = HLA-A*0201 (HLA-A2.1) (Homo sapiens, UniProt P04439, D140Y/D185E/D98H/E176V/E277Q/G131W/G231S/I119V/I121R/I166T/I218V/L300P/L318F/N151K/N90K/P208A/P217A/Q86G/Q94H/R138H/R169H/T345S)

Sequence | IC50 (HLA-A3.2 (A*0301)) [nM] | IC50 (HLA-A11 (A*1101)) [nM] | IC50 (A*3301) [nM] | IC50 (A31 (A*3101)) [nM] | IC50 (A*6801) [nM] | A2.1 (HLA-A*0201 (HLA-A2.1)) | A3.2 (HLA-A3.2 (A*0301); Table 164, MAGE peptides, binding value to HLA-A3.2, no unit given) | A11 (HLA-A11 (A*1101))
QQRSLTEILK [Peptide 9012.0218] | 520 | 93 | > 20000 | – | – | – | – | –
QTRSLTEILK [Peptide 9012.0217] | 250 | 96 | 19800 | 3170 | – | – | – | –
RIGILRQRR [Peptide 9017.0113] | 277 | 1140 | – | 7.6 | – | – | – | –
RLIDRIRER [Peptide 9017.0123] | 36 | 137 | 937 | 4.6 | – | – | – | –
SFTDLVRNFK [Peptide 88.0143] | 1590 | – | 56 | 47 | 22 | – | – | –
SLARRHIAR [Peptide 9017.0067] | 66 | 1100 | 30 | 1.5 | – | – | – | –
SLKCLRYRLK [Peptide 88.0217] | 74 | – | 18800 | 2690 | 12600 | – | – | –
SQRLNACQNK [Peptide 1589.34] | 2700 | – | > 20000 | 5960 | > 20000 | – | – | –
SQRLNVCQDK [Peptide 88.0205] | 1870 | – | > 20000 | 13400 | > 20000 | – | – | –
SQTCALYWFR [Peptide 88.0165] | 4850 | 1830 | 260 | – | – | – | – | –
SQWIKYRCSK [Peptide 88.0174] | 944 | – | 3400 | 323 | > 20000 | – | – | –
STAAALYWYK [Peptide 1587.06] | 4.5 | 1.6 | – | – | 5.9 | – | – | –
STWHWTSDDK [Peptide 1589.43] | 342 | 47 | > 20000 | 5300 | – | – | – | –
SVRKLVEDR [Peptide 9017.0105] | 5100 | 1140 | 187 | 15 | – | – | – | –
TTITVYAEPPR [Peptide 1556.07] | > 20000 | – | 2550 | 577 | 20 | – | – | –
TVDVYMIMVK [Peptide 9012.0257] | 11100 | 95 | > 20000 | > 20000 | – | – | – | –

Sequence | IC50 (HLA-A3.2 (A*0301)) [nM] | IC50 (HLA-A11 (A*1101)) [nM] | IC50 (A*3301) [nM] | IC50 (A31 (A*3101)) [nM] | IC50 (A*6801) [nM] | A2.1 (HLA-A*0201 (HLA-A2.1)) | A3.2 (HLA-A3.2 (A*0301); Table 164, MAGE peptides, binding value to HLA-A3.2, no unit given) | A11 (HLA-A11 (A*1101))
TVRHKKLMFK [Peptide 1556.79] | 440 | 188 | 11800 | 5100 | – | – | – | –
TVSATQIVR [Peptide 1589.26] | 2540 | – | 645 | 213 | 14 | – | – | –
TVWNPPTTAK [Peptide 1556.03] | 25 | 26 | 1580 | 9190 | – | – | – | –
VFGIDVKEA | – | – | – | – | – | <0.0002 | <0.0002 | 0
VLCGPPNTGK [Peptide 88.0189] | 141 | 220 | > 20000 | 370 | – | – | – | –
VLILALLRYK [Peptide 88.0144] | 52 | 266 | – | – | – | – | – | –
VLYGPANTGK [Peptide 88.0180] | 9.8 | 25 | – | 1930 | – | – | – | –
VSIEWRKRR [Peptide 9017.0090] | 2650 | 77 | 58 | 9.2 | – | – | – | –
VTIKIGGQIK [Peptide 1516.02] | 1110 | 184 | > 20000 | 19300 | – | – | – | –
VVCTYSPALNK [Peptide 1556.35] | 370 | 104 | > 20000 | 5190 | – | – | – | –
VVFGILIKRK [Peptide 9012.0246] | 54 | 13 | 10100 | 2600 | – | – | – | –
VVPALSVSK [Peptide 1589.14] | 515 | 33 | > 20000 | > 20000 | – | – | – | –
VVYRLVWDK [Peptide 1589.38] | 63 | 13 | 3780 | 989 | – | – | – | –
WFFVETIVEK [Peptide 88.0171] | 13700 | 1480 | 201 | 18300 | – | – | – | –
WTLELLEELK [Peptide 9017.0238] | > 20000 | 3840 | > 20000 | 17200 | – | – | – | –
YLALTALIK [Peptide 9017.0097] | 235 | – | > 20000 | > 20000 | 5900 | – | – | –
